Laboratory results reported in patent US9340575B2, “Agonists and antagonists of the urotensinergic system” (INSTITUT NATIONAL DE LA RECHERCHE SCIENTIFIQUE, priority 2011, dated 2016).
Read-outs that look alike come from different tables or passages of the source. Marks after values point to notes of the source that are not given here. Bridge positions count the residues as written; N and C are the ends. Ends that are not written are not given here.

Key:
rat thoracic aorta rings = format: cell-based; conditions: for Aortic Ring contraction pEC50: endothelium-denuded rat thoracic aorta; for Aortic Ring contraction Emax (%): percentage of contraction induced by KCl (40 mM); for Aortic Ring contraction Emax (%), maximum efficacy at 10^−5.5M: percentage of KCl (40 mM) contraction
Description: Binding and functional experiments were performed at least in triplicate and data, expressed as mean±S.E.M, were analyzed using the Prism software (Graph Pad Software, San Diego, Calif.). In all experiments, n represents the total number of animals studied or individual assays performed. The EC50, pEC50, pIC50 values as well as the Emax value were determined from the concentration-response curves using a sigmoidal dose-response fit with variable slope. […] The slope is calculated from the double reciprocal plot of equiactive concentrations of agonist in the presence and absence of antagonist.

anaesthetized rats = test: Hemodynamic assessment (arterial blood pressure) in anaesthetized rats; format: in vivo, rat
Description: Male Sprague-Dawley rats, weighing 350-400 g, were anaesthetized by isoflurane inhalation delivered in 100% oxygen (1 l/min) from an Ohmeda Tec 4 anaesthetic vaporizer (Somatechnology, Inc., Bloomfield, Conn., USA). Anaesthesia was maintained by mask inhalation of isoflurane vaporized at concentrations of up to 3% in the induction phase, at 1.5% during acute surgical procedures and at 0.8-1.0% during experimental observations. […]. […] A period of stabilisation of 30 min was observed and the following experimental protocols were then performed and arterial blood pressure was evaluated. During isoflurane inhalation, no breathing complications or changes in blood pressure were observed. […].
In a preliminary study, individual rats received a single i.v. injection of hUII ranging from 1 to 30 nmol/kg. A dose-response curve, reflecting the effect of hUII on the change in blood pressure, was then determined.
In this set of experiments, five groups of rats were used. […] […]. Hemodynamic changes were continuously captured by the pressure probe over a period of 1 h. The maximum rise and the maximum drop in blood pressure was determined and analyzed using the PowerLab software (ADInstruments, Colorado Springs, Colo., USA).
In the control group, the rats received two doses of hUII (10 nmol/kg) with a 30 min interval between the first and second injection.

[1] = target: T1, human urotensin II receptor (UT) (Homo sapiens, UniProt Q9UKP6); test: Competitive radioligand binding on CHO-UT cells; conditions: for IC50: 125I-hUII 0.2 nM, CHO-UT cells, 95% confidence limits in parentheses, read-out: Binding IC50
T1 construct: expressed in transfected cells; host or cells: CHO cells (CHO-UT), stably transfected, G418 selection
T1 sequence (Q9UKP6 1-389): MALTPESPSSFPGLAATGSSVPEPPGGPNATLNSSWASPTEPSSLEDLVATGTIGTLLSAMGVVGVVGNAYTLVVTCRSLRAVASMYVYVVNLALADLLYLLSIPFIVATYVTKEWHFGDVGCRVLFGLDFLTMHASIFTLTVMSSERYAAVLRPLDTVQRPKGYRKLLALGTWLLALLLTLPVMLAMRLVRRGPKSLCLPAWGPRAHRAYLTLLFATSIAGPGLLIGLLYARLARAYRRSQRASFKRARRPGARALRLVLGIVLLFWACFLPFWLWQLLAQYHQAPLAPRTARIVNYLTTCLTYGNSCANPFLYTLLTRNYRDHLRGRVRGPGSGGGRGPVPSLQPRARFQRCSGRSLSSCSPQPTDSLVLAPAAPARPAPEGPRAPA
Description: Transfected CHO cells expressing the human urotensin receptor (CHO-UT) were maintained in Ham-F12 medium with 10% fetal bovine serum (FBS), 2 mM L-glutamine, 100 UI/mL each of penicillin and streptomycin, and 400 μg/mL G418. […] Binding assays were following known literature procedures using CHO cells stably transfected with hGPR14. […] After 90 min of incubation at room temperature, cells were washed, lysed, and the cell-bound radioactivity was quantified using a γ-counter. […] The cells were then washed, lysed, and the radioactivity counted on a γ-counter (1470 Automatic Gamma Counter, Perkin Elmer). Binding and functional experiments were performed at least in triplicate and data, expressed as mean±S.E.M, were analyzed using the Prism software (Graph Pad Software, San Diego, Calif.). In all experiments, n represents the total number of animals studied or individual assays performed. The EC50, pEC50, pIC50 values as well as the Emax value were determined from the concentration-response curves using a sigmoidal dose-response fit with variable slope. […] The slope is calculated from the double reciprocal plot of equiactive concentrations of agonist in the presence and absence of antagonist.

`CC(C)[C@H](NC(=O)[C@@H]1CSSC[C@H](NC(=O)[C@H](C)N)C(=O)N[C@@H](Cc2ccccc2)C(=O)N[C@@H]2Cc3c([nH]c4ccccc34)CN(C2=O)[C@@H](CCCCN)C(=O)N[C@@H](Cc2ccc(O)cc2)C(=O)N1)C(=O)O` [Compound 13, [D-Aia^4]URP] was tested, and the EC50 (rat thoracic aorta rings) was 0.159 µM.
With `CC(C)[C@H](NC(=O)[C@@H]1CSSC[C@H](NC(=O)[C@H](CC(=O)O)NC(=O)[C@@H]2CCCN2C(=O)[C@@H](NC(=O)[C@@H](N)CCC(=O)O)[C@@H](C)O)C(=O)N[C@@H](Cc2ccccc2)C(=O)N[C@@H](Cc2c[nH]c3ccccc23)C(=O)N[C@@H](CCCCN)C(=O)N[C@@H](Cc2ccc(O)cc2)C(=O)N1)C(=O)O` [Compound 1, reference compound] the EC50 (rat thoracic aorta rings) was 0.001 µM, the “Aortic Ring contraction pEC50” value (rat thoracic aorta rings) was 9.08 ± 0.25 and the “Aortic Ring contraction pEC50” value (rat thoracic aorta rings; listed as hUII) was 8.98±0.21. The “Aortic Ring contraction Emax (%)” value (rat thoracic aorta rings) was 117 ± 7%, the “Aortic Ring contraction Emax (%)” value (rat thoracic aorta rings; listed as hUII) was 124±8% and the “Hemodynamic response to bolus i.v. injection” value (anaesthetized rats; 0.01 μmol/kg i.v.) was “biphasic hemodynamic response”. The “Time of hypotension nadir” value (anaesthetized rats; 0.01 μmol/kg i.v.) was about 6 min, the “Time of pressor phase peak” value (anaesthetized rats; 0.01 μmol/kg i.v.) was about 1 min and the “Response to repeated injections” value (anaesthetized rats; 10 nmol/kg twice, 30 min interval) was “equivalent biphasic responses”. The “Effect of prior hUII injection on hypotensive effect of URP” value (anaesthetized rats; URP injected 30 min after hUII, 10 nmol/kg) was “significantly reduced” and the “Dose giving the most significant drop in blood pressure” value (anaesthetized rats; single i.v. injection, 1 to 30 nmol/kg tested) was 10 nmol/kg.
`CC(C)[C@H](NC(=O)[C@@H]1CSSC[C@H](NC(=O)[C@H](C)N)C(=O)N[C@@H](Cc2ccccc2)C(=O)N[C@@H](CC2CCCCC2)C(=O)N[C@@H](CCCCN)C(=O)N[C@@H](Cc2ccc(O)cc2)C(=O)N1)C(=O)O` [Compound 6, H-Ala-Cys-Phe-Cha-Lys-Tyr-Cys-Val-OH] was tested, and the “Agonist behaviour in aortic ring contraction (in words)” value (shortened to “Agonist behaviour”) (rat thoracic aorta rings) was “full but weak agonist”, the EC50 (rat thoracic aorta rings) was over 1 µM and the “Aortic Ring contraction pEC50” value (rat thoracic aorta rings) was under 6. The “Aortic Ring contraction Emax (%), maximum efficacy at 10^−5.5M” value (rat thoracic aorta rings) was 77^d % and the “Reduction in binding affinity compared to compound 5” value ([1]; versus compound 5) was 3 fold.
With `CC(C)[C@H](NC(=O)[C@@H]1CSSC[C@H](NC(=O)[C@H](C)N)C(=O)N[C@@H](Cc2ccccc2)C(=O)N[C@@H](C(c2ccccc2)c2ccccc2)C(=O)N[C@@H](CCCCN)C(=O)N[C@@H](Cc2ccc(O)cc2)C(=O)N1)C(=O)O` [Compound 9, H-Ala-Cys-Phe-Dip-Lys-Tyr-Cys-Val-OH] the “Agonist behaviour” value (rat thoracic aorta rings) was “weak UT agonist”, the EC50 (rat thoracic aorta rings) was over 1 µM and the “Aortic Ring contraction pEC50” value (rat thoracic aorta rings) was under 6. For the same molecule, the “Aortic Ring contraction Emax (%), maximum efficacy at 10^−5.5M” value (rat thoracic aorta rings) was 23^d %.
In the case of `CC(C)[C@H](NC(=O)[C@@H]1CSSC[C@H](NC(=O)[C@H](C)N)C(=O)N[C@@H](Cc2ccccc2)C(=O)N2Cc3ccccc3C[C@H]2C(=O)N[C@@H](CCCCN)C(=O)N[C@@H](Cc2ccc(O)cc2)C(=O)N1)C(=O)O` [Compound 18, H-Ala-Cys-Phe-Tic-Lys-Tyr-Cys-Val-OH], the EC50 (rat thoracic aorta rings) is reported as over 1 µM, the “Aortic Ring contraction pEC50” value (rat thoracic aorta rings) is reported as under 6 and the “Aortic Ring contraction Emax (%), maximum efficacy at 10^−5.5M” value (rat thoracic aorta rings) is reported as 43%. For the same molecule, the “Binding affinity for UT (in words)” value [1] was “dramatic loss of binding affinity”.
With `CC(C)[C@H](NC(=O)[C@@H]1CSSC[C@H](NC(=O)[C@H](C)N)C(=O)N[C@@H](Cc2ccccc2)C(=O)N[C@H](Cc2cccc3ccccc23)C(=O)N[C@@H](CCCCN)C(=O)N[C@@H](Cc2ccc(O)cc2)C(=O)N1)C(=O)O` [Compound 4, [D-1-Nal^4]URP] the EC50 (rat thoracic aorta rings) was 0.825 µM, the “Aortic Ring contraction pEC50” value (rat thoracic aorta rings) was 6.08 ± 0.04 and the “Aortic Ring contraction Emax (%), maximum efficacy at 10^−5.5M” value (rat thoracic aorta rings) was 34%.
In the case of `CC(C)[C@H](NC(=O)[C@@H]1CSSC(C)(C)[C@H](NC(=O)[C@H](C)N)C(=O)N[C@@H](Cc2ccccc2)C(=O)N2CCc3ccccc3[C@H]2C(=O)N[C@@H](CCCCN)C(=O)N[C@@H](Cc2ccc(O)cc2)C(=O)N1)C(=O)O` [Compound 20, H-Ala-Pen-Phe-Tiq-Lys-Tyr-Cys-Val-OH], the IC50 [1] is reported as over 10 µM.
“[Pro^7]hUII: hUII in which the Trp residue is replaced by a Pro moiety (ETPDCFPKYCV-OH; disulfide 5-10 (inferred))” was tested, and the “Agonist behaviour” value (rat thoracic aorta rings) was “weak agonistic effect” and the “Aortic Ring contraction Emax (%), maximum efficacy at 10^−5.5M” value (rat thoracic aorta rings) was 69%.
`CC(C)[C@H](NC(=O)[C@@H]1CSSC[C@H](NC(=O)[C@H](C)N)C(=O)N[C@@H](Cc2ccccc2)C(=O)N2Cc3ccccc3C[C@@H]2C(=O)N[C@@H](CCCCN)C(=O)N[C@@H](Cc2ccc(O)cc2)C(=O)N1)C(=O)O` [Compound 19, [D-Tic^4]URP] was tested, and the EC50 (rat thoracic aorta rings) was 0.259 µM, the “Aortic Ring contraction pEC50” value (rat thoracic aorta rings) was 6.08 ± 0.04 and the “Aortic Ring contraction Emax (%)” value (rat thoracic aorta rings) was 128 ± 12%.
With `CC(C)[C@H](NC(=O)[C@@H]1CSSC[C@H](NC(=O)[C@H](C)N)C(=O)N[C@@H](Cc2ccccc2)C(=O)N[C@H](C(C)(C)C)C(=O)N[C@@H](CCCCN)C(=O)N[C@@H](Cc2ccc(O)cc2)C(=O)N1)C(=O)O` [Compound 8, [D-Tbg^4]URP] the EC50 (rat thoracic aorta rings) was 0.262 µM.
For `CC(C)[C@H](NC(=O)[C@@H]1CSSC[C@H](NC(=O)[C@H](C)N)C(=O)N[C@@H](Cc2ccccc2)C(=O)N2Cc3[nH]c4ccccc4c3C[C@H]2C(=O)N[C@@H](CCCCN)C(=O)N[C@@H](Cc2ccc(O)cc2)C(=O)N1)C(=O)O` [Compound 10, H-Ala-Cys-Phe-Tpi-Lys-Tyr-Cys-Val-OH], the “Agonist behaviour” value (rat thoracic aorta rings) was “vasoconstriction comparable to hUII or URP with however a slightly reduced potency”, the “Aortic Ring contraction Emax (%)” value (rat thoracic aorta rings) was 139 ± 17% and the “Binding affinity for UT (in words)” value [1] was “high affinity for UT”.
For `CC(C)[C@H](NC(=O)[C@@H]1CSSC[C@H](NC(=O)[C@H](C)N)C(=O)N[C@@H](Cc2ccccc2)C(=O)N[C@@H](Cc2ccc(I)cc2)C(=O)N[C@@H](CCCCN)C(=O)N[C@@H](Cc2ccc(O)cc2)C(=O)N1)C(=O)O` [Compound 5, H-Ala-Cys-Phe-Phe(I)-Lys-Tyr-Cys-Val-OH], the “Drop in binding affinity on substitution of Trp” value ([1]; versus native peptide) was 4 fold.
`CC(C)[C@H](NC(=O)[C@@H]1CSSC[C@H](NC(=O)[C@H](C)N)C(=O)N[C@@H](Cc2ccccc2)C(=O)N2CCc3ccccc3[C@@H]2C(=O)N[C@@H](CCCCN)C(=O)N[C@@H](Cc2ccc(O)cc2)C(=O)N1)C(=O)O` [Compound 17, [D-Tiq^4]URP] was tested, and the EC50 (rat thoracic aorta rings) was 0.021 µM, the “Aortic Ring contraction pEC50” value (rat thoracic aorta rings) was 7.68 ± 0.17 and the “Aortic Ring contraction Emax (%)” value (rat thoracic aorta rings) was 113 ± 7%.
`CC(C)[C@H](NC(=O)[C@@H]1CSSC[C@H](NC(=O)[C@H](C)N)C(=O)N[C@@H](Cc2ccccc2)C(=O)N[C@@H](c2ccccc2)C(=O)N[C@@H](CCCCN)C(=O)N[C@@H](Cc2ccc(O)cc2)C(=O)N1)C(=O)O` [Compound 14, H-Ala-Cys-Phe-Phg-Lys-Tyr-Cys-Val-OH] was tested, and the EC50 (rat thoracic aorta rings) was 0.251 µM, the “Aortic Ring contraction pEC50” value (rat thoracic aorta rings) was 6.60 ± 0.15 and the “Aortic Ring contraction Emax (%)” value (rat thoracic aorta rings) was 102 ± 9%. The “Binding affinity for UT (in words)” value [1] was “high binding affinity” and the IC50 [1] was 0.029 µM.
With `CC(C)[C@H](NC(=O)[C@@H]1CSSC[C@H](NC(=O)[C@H](C)N)C(=O)N[C@@H](Cc2ccccc2)C(=O)N[C@@H](Cc2cccc3ccccc23)C(=O)N[C@@H](CCCCN)C(=O)N[C@@H](Cc2ccc(O)cc2)C(=O)N1)C(=O)O` [Compound 3, H-Ala-Cys-Phe-Nal-Lys-Tyr-Cys-Val-OH] the “Agonist behaviour” value (rat thoracic aorta rings) was “almost equipotent analog”, the EC50 (rat thoracic aorta rings) was 0.054 µM and the “Aortic Ring contraction pEC50” value (rat thoracic aorta rings) was 7.27 ± 0.24. For the same molecule, the “Aortic Ring contraction Emax (%)” value (rat thoracic aorta rings) was 86 ± 8%.
